1 compound from US20090082304A1, “Methods of Treating Hematological Malignancies with Nucleoside Analog Drugs” (NORTHWESTERN UNIVERSITY, priority 2004, published 2009) can be followed below.

A value given as a limit tells only on which side of the number the result lay.

Common to all, as to assay type: cell-based
The test system of one series is PDK1. As to the kind of experiment: Immunoblot of PDK1 (total and phosphorylated) in MM.1 S cells. Particulars: 10 μM, 0-6 hours. The method, then:
(§1) 5×10^6 were cells treated with 10 μM 8-NH2-Ado for the indicated times and harvested. Cell pellets were washed with cold phosphate-buffered saline (PBS; 8.1 g NaCl, 1.14 g Na2HPO4, 0.22 g KCl, and 0.25 g/L KH2PO4) and incubated with lysis buffer (50 mM HEPES, 150 mM NaCl, 1.5 mM MgCl2, 1 mM EDTA pH 8.0, 100 mM NaFI, 10 mM Na Pyrophosphate, 500 μM PMSF, 0.5% Triton X-100, 10% glycerol) at 4° C. for one hour. Lysates were centrifuged at 4° C. for 1 minute at 9000×g, and the supernatants were collected and stored at −20° C. Protein concentration was determined by Bio-Rad protein assay (BioRad Laboratories, Hercules, Calif.). Protein, at a concentration of 30 μg, was mixed with sample buffer (125 mM Tris, pH 6.8, 4% SDS, 20% glycerol, 100 mM Dithiothreitol (DTT), and 0.05% bromophenol blue), and fractionated on a pre-cast 8-16% Tris-Glycine gel (Invitrogen/Novex, Carlsbad, Calif.). Proteins were then transferred to a Polyvinylidene Fluoride (PVDF) membrane (Immobilon-P, Millipore, Bedford, Mass.): Following protein transfer, membranes were blocked with 5% non-fat milk in PBS-T (PBS with 0.1% Tween), incubated with the primary antibody overnight at 4° C. and subsequently with horseradish peroxidase linked secondary antibody (Amersham, Arlington Heights, Ill.). […]
A general note: Immunoblotting shows a protein as a band on a membrane.

Series [1] deals with total protein levels of the signaling proteins in myeloma cells. As to the kind of experiment: Immunoblot reprobe with total protein antibodies. The procedure: (§2) 5×10^6 were cells treated with 10 μM 8-NH2-Ado for the indicated times and harvested. Cell pellets were washed with cold phosphate-buffered saline (PBS; 8.1 g NaCl, 1.14 g Na2HPO4, 0.22 g KCl, and 0.25 g/L KH2PO4) and incubated with lysis buffer (50 mM HEPES, 150 mM NaCl, 1.5 mM MgCl2, 1 mM EDTA pH 8.0, 100 mM NaFI, 10 mM Na Pyrophosphate, 500 μM PMSF, 0.5% Triton X-100, 10% glycerol) at 4° C. for one hour. Lysates were centrifuged at 4° C. for 1 minute at 9000×g, and the supernatants were collected and stored at −20° C. Protein concentration was determined by Bio-Rad protein assay (BioRad Laboratories, Hercules, Calif.). Protein, at a concentration of 30 μg, was mixed with sample buffer (125 mM Tris, pH 6.8, 4% SDS, 20% glycerol, 100 mM Dithiothreitol (DTT), and 0.05% bromophenol blue), and fractionated on a pre-cast 8-16% Tris-Glycine gel (Invitrogen/Novex, Carlsbad, Calif.). Proteins were then transferred to a Polyvinylidene Fluoride (PVDF) membrane (Immobilon-P, Millipore, Bedford, Mass.): Following protein transfer, membranes were blocked with 5% non-fat milk in PBS-T (PBS with 0.1% Tween), incubated with the primary antibody overnight at 4° C. and subsequently with horseradish peroxidase linked secondary antibody (Amersham, Arlington Heights, Ill.). Blots were developed using ECL Plus Chemiluminescent Western Blotting Detection reagent (Amersham, Arlington Heights, Ill.) and the signal was visualized with X-ray film (Hyperfilm, Amersham, Arlington Heights, Ill.). For reprobing purposes, blots were stripped using Restore Western Blot Stripping Buffer from Pierce Biotechnology (Rockford, Ill.). Phospho-MKK3/6 (Ser189/207), phospho-p38 (Thr180/Tyr182), phospho-ATF-2 (Thr69/71), phospho-c-Raf (Ser259), phospho-MEK1/2 (Ser217/221), total MEK1/2, phospho-ERK1/2 (Thr202/Tyr204), total ERK1/2, phospho-p90RSK (Ser380), total RSK, phospho-PDK1 (Ser241), total PDKI, phospho-PTEN (Ser380), total PTEN, phospho-Akt (Ser473), total Akt, phospho-GSK-3β (Ser9), total GSK-3β, phospho-FKHRLI (Thr32)/-FKHR (Thr24), phospho-FKHR (Ser256) primary antibodies were obtained from Cell Signaling Technology (Beverly, Mass.). Total MKK3, total MKK6, total p38, total ATF-2, total c-Raf, total FKHR, total FKHRLI, phospho-JNK and total JNK were purchased from Santa Cruz Biotechnology (Santa Cruz, Calif.). Caspase 3, caspase 9, and PARP antibodies were obtained from Pharmingen (San Diego, Calif.) and anti-MKP1 from Upstate (Lake Placid, N.Y.). Anti-caspase 8 mouse serum was a generous gift of Dr. Marcus Peter (University of Chicago).
MM.1 S cells were exposed to 10 μM 8-NH2-Ado for 0, 0.5, 1, 2, 4 and 6 hours, after which cells were lysed as previously (Example 2). 30 μg of protein was separated by gel electrophoresis, transferred to PVDF membrane, and probed with phosphorylation-specific antibodies to MKK3/6, p38 MAPK, ATF-2, MEK1/2, ERK1/2, p90RSK, JNK1, PDK1, Akt, FKHRL1 and GSK-3β. […] FIGS. 1A, 1B, 1C and 1D provide the results of the blots.

For another series, the system named is MM cells. The method, then:
The MTS assay was performed as described previously (Krett et al., Clin Cancer Res. 3: 1781-1787). Briefly, MM cells were cultured into 96 well dishes at a concentration of 25,000 cells per well and incubated with the 8-NH2-Ado for 72 hours. Cell proliferation was determined using the MTS Cell Titer Aqueous assay (Promega, Madison, Wis.), which measured the conversion of a tetrazolium compound into formazan by a mitochondrial dehydrogenase enzyme in live cells. The quantity of formazan product as measured by the amount of 490 nm absorbance is directly proportional to the number of living cells in culture. The data were expressed as the percentage of formazan produced by the cells treated with the control medium in the same assay.

Series [2] deals with poly (ADP-ribose) polymerase. As to the kind of experiment: PARP cleavage immunoblot in MM.1 S cells. The conditions noted are these: 10 μM. The procedure:
as §1, with “Calif.).” for “Calif.). Proteins were then transferred to a Polyvinylidene Fluoride (PVDF) membrane (Immobilon-P, Millipore, Bedford, Mass.): Following protein transfer, membranes were blocked with 5% non-fat milk in PBS-T (PBS with 0.1% Tween), incubated with the primary antibody overnight at 4° C. and subsequently with horseradish peroxidase linked secondary antibody (Amersham, Arlington Heights, Ill.).”
MM.1 S cells were exposed to 10 μM 8-NH2-Ado for 0, 0.5, 1, 2, 4 or 6 hours, after which cells were lysed as previously described. […] Total protein levels were also assessed to ensure equal loading and transfer (data not shown). […]

The test system of a further series is Akt kinase. As to the kind of experiment: Immunoblot of phospho-Akt in MM.1 S cells. Particulars: 10 μM. The procedure: as §2
MM.1 S cells were exposed to 10 μM 8-NH2-Ado for 0, 0.5, 1, 2, 4 and 6 hours, after which cells were lysed as previously (Example 2). 30 μg of protein was separated by gel electrophoresis, transferred to PVDF membrane, and probed with phosphorylation-specific antibodies to MKK3/6, p38 MAPK, ATF-2, MEK1/2, ERK1/2, p90RSK, JNK1, PDK1, Akt, FKHRL1 and GSK-3β.
MM. I S cells were treated with 10 μM 8-chloro-adenosine for 0, 0.5, 1, 2, 4 or 6 hours or 10 μM of cytarabine, fludarabine, gemcitabine or 8-amino-adenosine for 4 hours. Cells were lysed as previously described and 30 μg of protein was separated by gel electrophoresis, transferred to PVDF membrane, and probed with phospho-p38 MAPK (Thr180/Tyr182) antibody.
MM.1 S cells were grown in dextrose-free media and treated with 2 μM Antimycin A, 5 mM 2-DOG, and varying concentrations of dextrose for 90 minutes. Cellular ATP levels were determined using triplicate samples in a luciferase based assay and are expressed here as a percentage of untreated control.

Consider `Nc1ncnc2c1nc(N)n2[C@@H]1O[C@H](CO)[C@@H](O)[C@H]1O` [8-NH2-Ado, 8-amino-adenosine], for which the “Total and phosphorylated levels of PDK1” value with PDK1 is “remain unchanged”. Besides, in series [1] (MM.1 S cells, 10 μM, 0-6 hours), the “Total protein levels of the p38 MAPK module (MKK3/6, p38, ATF-2)” value was “remain unchanged”; the “total ERK1/2 levels” value is recorded as “remain unchanged”; the “total MEK1/2 protein levels” value was “do not change”; the “total p90RSK protein levels” value is listed as “unaffected”. Besides, in series [1] (MM.1 S cells, 10 μM, 0-6 hours), the “total protein levels of Forkhead family members” value is given as “do not change”. In addition, the “total p38 levels” value in series [1] (RPMI-8226, MDR10V and MM.1 R cells) was “remain unchanged”. In addition, in the series with MM cells, the cytotoxicity result is on record as “cytotoxic” and the “effect on normal versus malignant cells” value is “differential effect”. Besides, the “start of cleavage of poly (ADP-ribose) polymerase” value in series [2] is at least 2 h. The “phosphorylation of Akt” value in the series with Akt kinase (4 hours, data not shown) was “dramatic loss of phosphorylation”. Further, in the series on Akt kinase (by 2 hours), the Phospho-Akt levels entry was “decrease significantly”. Moreover, the Phospho-Akt levels result with Akt kinase (eventually (after 2 hours)) was “decline further to negligible levels”.
